Data reported in US20030143713A1, “Novel glycosidase inhibitors and their pharmacological uses, in particular for treating diabetes” (priority 1999, published 2003).

Target: T1, isoenzyme 1 of barley α-amylase (AMY1) (Hordeum vulgare, UniProt P00693)
T1 construct: made in house; host or cells: Pichia pastoris
Test: X-ray crystal structure of the AMY1/spermidine complex (cocrystallisation with spermidine, then soaking in acarbose)
Type: binding
Method: The 9 C-terminal residues of recombinant isoenzyme 1 of barley α-amylase (AMY1) were cleaved in order to obtain a C-terminal end of the same length as that of isoenzyme 2 (AMY2). The protein was then over-expressed in Pischia pastoris, purified and concentrated.
The protein preparation used for crystallisation has a concentration of 5.1 mg/ml and is in a solution of 10 mM MES (2-[N]-Morpholino ethane sulphonic acid), 100 mM CaCl2, 0.02% NaN3, pH 6.7.
The crystals were obtained by cocrystallisation thanks to the vapour diffusion principle using the hanging droplet technique. To do this, 2.5 μl of polyethylene glycol 8000 at 21% as a precipitating agent and 0.5 μl of a 0.1M solution of spermidine as a crystallisation additive were added to 2 μl of the protein solution described previously. This droplet was equilibrated at 19° C. against a reservoir containing 500 μl of polyethylene glycol 8000 at 21%.
The crystals were then immersed for 20 hours in a polyethylene glycol 8000 solution at 21% containing 10 mM of acarbose (a pseudo-tetrasaccharide).
Collection of the diffraction data was carried out using an X-ray generator (CuKα radiation—wavelength 1.5418 Å) with a rotating anode (Nonius 581) operating at 40 kV and 90 mA (i.e. 3.6 kW) with a graphite monochromator coupled to a two-dimensional detector of Image Plate type (MarResearch 345) of 34.5 cm in diameter.
A set of 180 diffraction exposures (each corresponding to 1° of oscillation of the crystal) was collected at 15° C., the crystal being capillary mounted and positioned at 120 mm from the detector, with an exposure time of the crystal to the X-rays of 500s per exposure. The highest resolution of this set of data is 2.44 Å.
We then determined the space group as being a P212121. The asymmetrical unit is composed of a molecule of the AMY1/spermidine complex, which corresponds to a volume of solvent in the lattice of 53%.
Subsequent processing of the data was carried out using the CCP4 suite of programs (CCP4, 1994).
The molecular replacement method was used thanks to the AmoRe software (Navaza, 1994) using the structure of isoenzyme 2 of barley α-amylase (AMY2-accession code PDB: 1AMY) (Kadziola et al., 1994 and Kadziola et al., 1998) as a guide model because of the significant sequence homology (80%) between this initial model and our protein of interest (AMY1). Refinement phases using molecular dynamic techniques (simulated annealing—Brünger et al., 1990) were carried out with CNS software version 0.9a (Brünger et al., 1998) alternating with model manipulations. […] In order to do this, 2Fo-Fc and Fo-Fc electronic density maps were calculated. […]

[1] = experimental AMY1/spermidine complex

T1 sequence (P00693 25-429 limits assumed): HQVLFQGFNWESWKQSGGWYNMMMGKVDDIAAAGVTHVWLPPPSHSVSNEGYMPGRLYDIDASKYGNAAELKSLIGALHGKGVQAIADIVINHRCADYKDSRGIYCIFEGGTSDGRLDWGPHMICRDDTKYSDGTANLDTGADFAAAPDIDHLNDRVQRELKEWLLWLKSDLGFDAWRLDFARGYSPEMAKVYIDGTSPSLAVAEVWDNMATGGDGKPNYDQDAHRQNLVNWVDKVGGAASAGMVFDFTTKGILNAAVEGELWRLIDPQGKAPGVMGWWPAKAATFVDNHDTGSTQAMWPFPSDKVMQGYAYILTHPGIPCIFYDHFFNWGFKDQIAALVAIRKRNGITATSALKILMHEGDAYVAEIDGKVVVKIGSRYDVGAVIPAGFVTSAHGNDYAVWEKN

Direct hydrogen bonds with a residue [1]: 5
Direct hydrogen bonds with a water molecule [1]: 4
total of H bonds stabilising the complex (experimental AMY1/spermidine structure): 9
SMILES: NCCCCNCCCN [spermidine]
affinity for the enzyme compared with acarbose type inhibitors (in the presence of the two types of inhibitors (spermidine and acarbose)): significantly greater affinity for the enzyme in comparison to the acarbose type inhibitors
